Results reported in patent US9453008B2, “Antithrombotic and antiatherosclerotic agent and method for producing same (variants)” (PROTON OOO, priority 2011, dated 2016).

Assays:
[1] = test system: ADP-induced platelet aggregation; assay: ADP-induced platelet aggregation following intravenous administration in rabbits; format: in vivo, rabbit
Experimental: FIG. 1 is a graph showing the effect of the compound I and sodium nitroprusside on ADP-induced platelet aggregation following intravenous administration in rabbits (% compared to control).
Antiplatelet activity was assessed by the effect of the compound on platelet aggregation of rabbit blood plasma, induced by ADP (adenosine diphosphate) and arachidonic acid. Platelet aggregation was assessed by the change of optical density of plasma. Studies were performed using both intravenous administration, in comparison with sodium nitroprusside, and oral administration, in comparison with acetylsalicylic acid. Compound I was used in concentrations of 10^−3-10^−7 M (parenteral administration) and in 4-8 and 12 mg/kg doses (oral administration).
In order to make a final conclusion on the ability of the studied compound to inhibit platelet aggregation experiments were performed in conditions of living organism using intravenous and oral administration.
Compound I and sodium nitroprusside (a reference drug) have both inhibited the process of platelet aggregation. However, there were considerable quantitative and temporal differences in their effects. […] This was the only time point where we managed to observe its activity. After 1 hour the effect disappeared.

[2] = test system: pressor effect of noradrenaline; assay: Pressor effect of noradrenaline after intravenous administration in normotensive narcotized rats; format: in vivo, rat
Experimental: (§1) The experiments were performed on spontaneously hypertensive (SHT) and normotensive (NT) narcotized male rats using intravenous administration of the tested compounds. The ability of the compound to reduce arterial blood pressure (BP) in SHT rats and prevent spasmogenic reactions to noradrenalin (NA) and angiotensin I (AI).
(§2) The effects of the compound of formula I on the pressor effects of noradrenaline (NA, 10-15 μg/kg), mesatonum (M, 5 μg/kg) and angiotensin (AI, 5 μg/kg) were studied on normotensive narcotized […]. Antihypertensive action of the compound of formula I was assessed relative to the pressor effects of the control administration of the aforementioned compounds.

[3] = test system: pressor effect of angiotensin I; assay: Pressor effect of angiotensin I after intravenous administration in normotensive narcotized rats; format: in vivo, rat
Experimental: as §1, §2

CN1CC(CO)O/C1=C(C#N)/C=C1/Nc2ccccc2C1=O (centres unmarked) [Compound I, 2-[2-Cyano-2-[5-(hydroxymethyl)-3-methyl-1,3-oxazolidin-2-ylidene]ethylidene]indolin-3-one]
Inhibition of induced functional activity of platelets compared with sodium nitroprusside ([1]; intravenous administration to rabbits): as potent as that of sodium nitroprusside, but persists for a longer time | Time at which inhibition of platelet aggregation stopped/disappeared ([1]; intravenous, rabbits): 3 h | Time of maximal potency of inhibition of platelet aggregation ([1]; intravenous, rabbits): 60 min | Inhibition of pressor reaction (%) induced by Noradrenaline ([2]; 0.01 mg/kg intravenous): 25% | Inhibition of pressor reaction (%) induced by Noradrenaline ([2]; 0.05 mg/kg intravenous): 35% | Inhibition of pressor reaction (%) induced by Noradrenaline ([2]; 0.1 mg/kg intravenous): 50% | Inhibition of pressor reaction (%) induced by Noradrenaline ([2]; 0.5 mg/kg intravenous): 60% | Inhibition of pressor reaction (%) induced by Noradrenaline ([2]; 1.0 mg/kg intravenous): 55-60% | Inhibition of pressor reaction (%) induced by Angiotensin I ([3]; 0.01 mg/kg intravenous, 0 - absence of effect): 0% | Inhibition of pressor reaction (%) induced by Angiotensin I ([3]; 0.05 mg/kg intravenous): 10% | Inhibition of pressor reaction (%) induced by Angiotensin I ([3]; 0.1 mg/kg intravenous, listed as Compound of formula I): 25-30% | Inhibition of pressor reaction (%) induced by Angiotensin I ([3]; 0.1 mg/kg intravenous, listed as compound of formula I): 25% | Inhibition of pressor reaction (%) induced by Angiotensin I ([3]; 0.5 mg/kg intravenous, 0 - absence of effect): 30% | Inhibition of pressor reaction (%) induced by Angiotensin I ([3]; 1.0 mg/kg intravenous): 30-40%
